Data from US12440498B2 (priority 2020, dated 2025).
Where two headings read alike, the source gives them in different places.

Columns and labels:
[1] = human, in vivo; cited from earlier work
[2] = system: influenza; conditions: human, in vivo; cited from earlier work
[3] = in vivo; cited from earlier work
[4] = system: A/H1N1nLuc recombinant virus; test: microbe, parasite or virus in culture; format: cell-based, influenza A virus
[5] = system: recombinant A/H1N1 pdm09 wildtype (WT); format: cell-based
[6] = system: A/H3N2 (A/Texas/50/2012 H3N2); format: cell-based, influenza A virus
[7] = system: A/H1N1 pdm09 (A/Lyon/969/2009 H1N1); format: cell-based, influenza A virus
[8] = system: A/H1N1 virus; test: microbe, parasite or virus in culture; format: cell-based, influenza A virus
[9] = system: flu virus; conditions: human, in vivo, po; cited from earlier work

In the case of `COC(=O)OCOc1c2n(ccc1=O)N([C@@H]1c3ccccc3SCc3c1ccc(F)c3F)[C@@H]1COCCN1C2=O` [baloxavir marboxil], the “patients with mainly digestive side effects (nausea, diarrhea, etc.)” value [1] is given as 4-5% and the “median time to cessation of viral shedding” value [2] is given as 48 h.
For `O=C1c2c(O)c(=O)ccn2N([C@@H]2c3ccccc3SCc3c2ccc(F)c3F)[C@@H]2COCCN12` [baloxavir, baloxavir acid], the “half-life (hepatic elimination)” value [3] is listed as 50 to 90 h, the EC50 ([4]; Influenza A virus, A549) is listed as 0.000144 µM and the “reduction of production of A/H1N1 infectious particles” value [5] is listed as 3 log 10. The “reduction of production of A/H3N2 infectious particles” value [6] was 3 log 10, the “reduction of production of A/H1N1 infectious particles” value [7] was 4 log 10 and the “increase of IC50 relative to the initial IC50” value [8] was 35 times.
With `COc1ccc([C@@H]2Sc3ccccc3N(CCN(C)C)C(=O)[C@@H]2OC(C)=O)cc1.Cl` [diltiazem] the EC50 [4] was 53.8 µM, the EC50 ([4]; Influenza A virus, A549) was 50.1 µM and the IC50 ([8]; Influenza A virus, H1N1, MDCK, read-out: median inhibitory concentration (IC50)) was 5 µM.
`NC(=O)c1nc(F)c[nH]c1=O` [favipiravir] gave an EC50 ([4]; Influenza A virus, A549) of 2.49 µM.
For `CCOC(=O)C1=C[C@@H](OC(CC)CC)[C@H](NC(C)=O)[C@@H](N)C1` [oseltamivir], the “median time to cessation of viral shedding” value [2] is listed as 72 h.
In the case of `NC(=O)c1ncn([C@@H]2O[C@H](CO)[C@@H](O)[C@H]2O)n1` [ribavirin], the “efficacy against flu virus” value [9] is given as “not effective”.
